Source: patent US12246022B2, “Compositions and methods for treating, preventing or reversing age associated inflammation and disorders” (BROWN UNIVERSITY, priority 2019, dated 2025)
Like-named read-outs stand apart in the source and are kept apart here.

Key:
mouse LINE-1 = assay: Mouse LINE-1 retrotransposition assay (dual luciferase pYX016 reporter, HeLa cells); assay type: cell-based
Experimental: Elvucitabine was obtained by custom synthesis. […] HeLa cervical cancer cells were cultivated at 37° C. in a humidified 5% CO2 incubator in Dulbecco's Modified Eagle's Medium (DMEM)-high glucose, with 4500 mg/L glucose, L-glutamine, sodium pyruvate and sodium bicarbonate (Sigma), supplemented with 10% of heat inactivated fetal bovine serum (Thermo Fisher). Assays were performed as described in Xie et al., 2011^151 with several modifications. The reporter assay was performed in 96 well white Optical bottom plates. 6000 HeLa cells were seeded in each well 24 hours prior transfection and compound treatment. All compounds were resuspended in DMSO. Stock solution concentrations varied from 50 mM to 1.25 mM depending of the solubility of the compound. Serial dilutions (1:3) were prepared in DMSO. Ten different concentrations of each compound were tested in triplicate. Medium containing different concentrations of the compounds were prepared by adding 2 μL of the compound dilution to 1 mL of the culture medium. The final concentration of DMSO in the medium was 0.2%. FuGENE® HD transfection reagent (Promega) was used to transfect the plasmid pYX016 into the cells. The transfection mix was prepared in OpiMEM (Thermo Fisher) using a reagent to DNA ratio of 3.5:1 according to manufacturer's instructions. Culture medium was removed from the cells and discarded. The transfection mix (5 μL) was mixed with the compound containing medium (100 μL/well) and this was added onto the cells of each well. Cells were incubated for 48H at 37° C./5% CO2. Luciferase reporter activity was quantified with the Dual-Luciferase® Reporter Assay System (Promega) according to manufacturer's instructions for multiwell plates with the following modification: Cells were lysed directly on the multiwell plate with 30 μL of the passive lysis buffer (PLB) for 20 min at room temperature, with gentle shaking to ensure complete cell lysis (instead of 20 μL of PLB for 15 min). Firefly and Renilla luciferase signals were measured using a SpectraMax i3x Multi-Mode Microplate Reader. […] Relative L1 activity was calculated as Firefly/Renilla *10,000. […] The experiment was performed twice, independently.

human LINE-1 = assay: Human LINE-1 retrotransposition assay, related experiments with islatravir (pYX017, HeLa cells, Tables 12 and 13); assay type: cell-based; details: Homo sapiens
Experimental: In related experiments, islatravir and other compounds were tested for inhibition of retrotransposition activity of human LINE-1 in HeLa cells according to the following procedure.
HeLa cervical cancer cells were cultivated at 37° C. in a humidified 5% CO2 incubator in Dulbecco's Modified Eagle's Medium (DMEM)—high glucose, with 4500 mg/L glucose, L-glutamine, sodium pyruvate and sodium bicarbonate (Sigma), supplemented with 10% of heat inactivated fetal bovine serum (Thermo Fisher).
Assays were performed using reporter plasmid pYX017 as described (Xie, et al., 2011) with several modifications. The reporter assay was performed in 96-well white optical bottom plates. HeLa cells were seeded in wells 24 h prior to transfection and compound treatment so that cells were approximately 30% confluent on the day of transfection. Different cell plating densities were tested and a density of 2×10^3 cells was determined to be optimal.
Compounds were resuspended in DMSO. Serial dilutions (1:3) were prepared in DMSO. Medium containing different concentrations of the compounds were prepared by adding 2 μl of the compound dilution to 1 ml of the culture medium. The final concentration of DMSO in the medium was 0.2%.
FuGENE® HD transfection reagent (Promega, E2311, Lot 382574 and Lot 397842) was used to transfect the plasmids into the cells. The transfection reagent: DNA mixture was prepared in OpiMEM (Thermo Fisher) according to manufacturer's instructions. Different ratios of transfection reagent to DNA were tested and a ratio of 3:1 was determined to be optimal. Culture medium was removed from the cells and discarded. The transfection reagent: DNA mixture (5 μl) was mixed with the compound containing medium (100 μl/well) and this was added onto the cells of each well. Cells were incubated at 37° C./5% CO2 for different incubation time. A 72 h incubation time was determined to be optimal.
Luciferase reporter activity was quantified with the Dual-Luciferase® Reporter Assay System (Promega) according to manufacturer's instructions for multiwell plates except that cells were lysed directly on the multiwell plate with 30 μl of the passive lysis buffer (PLB) for 20 min at room temperature, with gentle shaking to ensure complete cell lysis.
Firefly and Renilla luciferase signals were measured using a SpectraMax i3x Multi-Mode Microplate Reader. Integration times of 100 ms and 10 ms were used to measure the Firefly and Renilla signals respectively. Relative L1 activity is calculated as Firefly/Renilla *1000 or Firefly/Renilla *10,000. Dose response inhibition data were fit to a four parameter logistic equation using non-linear regression (using Graphpad Prism 8), to determine IC50 values for each inhibitor.

[1] = pYX016, 48 H post-transfection, read-out: Mouse L1 activity inhibition IC50, Exp. 1
[2] = pYX016, 48 H post-transfection, read-out: Mouse L1 activity inhibition IC50, Exp. 2
[3] = pYX016, 48 H, n = 2, read-out: Mouse L1 activity inhibition IC50, Average
[4] = HeLa, Table 13 Comparative Studies, read-out: Human Line-1 IC50

| SMILES | IC50 (mouse LINE-1; [1]) [nM] | IC50 (mouse LINE-1; [2]) [nM] | IC50 (mouse LINE-1; [3]) [nM] | IC50 (human LINE-1; [4]) [nM] | IC50 (human LINE-1; HeLa cells, pYX017, 72 h, n = 3, read-out: Human LINE-1 IC50, Average) [nM] | IC50 (human LINE-1; HeLa cells, pYX017, 72 h, read-out: Human LINE-1 IC50, Exp.1) [nM] | IC50 (human LINE-1; HeLa cells, pYX017, 72 h, read-out: Human LINE-1 IC50, Exp.2) [nM] |
| --- | --- | --- | --- | --- | --- | --- | --- |
| Nc1ccn([C@@H]2CS[C@H](CO)O2)c(=O)n1 [Lamivudine] | 958 | 780 | 869 | 640 | 800 | 900 | 700 |
| Nc1nc(=O)n([C@@H]2CS[C@H](CO)O2)cc1F [Emtricitabine] | 640 | 451 | 546 | 1340 | – | – | – |
